The text below walks through data of US9708286B2, “Ingenol-3-acylates III and ingenol-3-carbamates” (LEO Laboratories Limited, priority 2010, dated 2017).

Holding throughout (format): cell-based
The subject of one test is HeLa cells. Briefly: Necrosis assay. Conditions: Homo sapiens, 0.5 h, read-out: HeLa necrosis EC50 range. An outline of the steps: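 HeLa cells treated with compound at 10 μM to 400 μM (final) for 30 min at 37° C., viability then measured by PrestoBlue fluorescence (ex 535/em 630 nm). Normalized to 1% DMSO and 400 μM ingenol mebutate controls; AbsEC50 from four-parameter sigmoidal fit.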

The subject of test [1] is Primary human epidermal keratinocytes, HeKa. Nature of the test: HeKa cytokine release (IL-8). The settings on record: Homo sapiens, read-out: HeKa cytokine release (IL-8) Rel EC50 range. The method in brief: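 Seeded cells exposed to compound dilutions for 6 h at 37° C; IL-8 in supernatant quantified by MSD sandwich electrochemiluminescence immunoassay. Effects normalized to positive control (1.5×10^−7 M PEP0005), four-parameter sigmoidal fit; Rel EC50 is concentration midway between fitted top and bottom.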

Test [2] has as its system PMN's (polymorphonuclear leukocytes). Briefly: Neutrophil oxidative burst. Conditions: Leukocyte, 40 min, normalized to 5×10^−7 M PEP0005. An outline of the steps: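 Human buffy-coat neutrophils (2.5×10^5/well) in HBSS with 0.1% BSA, 5 mM glucose treated with compound premixed with 10 μM hydroethidine for 40 min at RT; fluorescence read at 485/579 nm. Normalized to 5×10^−7 M PEP0005; Rel EC50 is midway between fitted top and bottom, Abs EC50 gives 50% of PEP0005 maximum.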

Where [3] appears, read: read-out: Neutrophil oxidative burst Rel EC50 range, PMN from buffy coats, 40 min at RT, hydroethidine fluorescence.

Structures are written as SMILES. Read-outs that look alike come from different tables or passages of the source.

In the case of `COCCn1cc(C)c(C(=O)O[C@H]2C(C)=C[C@]34C(=O)[C@@H](C=C(CO)[C@@H](O)[C@]23O)[C@H]2[C@@H](C[C@H]4C)C2(C)C)c1C` [Compound 589, Ingenol 3-(1-(2-methoxyethyl)-2,4-dimethyl-pyrrole-3-carboxylate)], the EC50 (commonly the concentration at which the effect is half-maximal) with HeLa cells (HeLa) is less than 150 µM; in test [1] (HEKa, 6 h) it was less than 20 nM; in test [2] (setting [3]), 20 to 100 nM.
Taken in the same sequence, the figures for `CC1=C[C@]23C(=O)[C@@H](C=C(CO)[C@@H](O)[C@]2(O)[C@H]1OC(=O)N(C)c1ccccc1)[C@H]1[C@@H](C[C@H]3C)C1(C)C` [Compound 705, Ingenol 3-(N-methyl-N-phenyl-carbamate)] were 150 to 350 µM, less than 20 nM and less than 20 nM.
Taken in the same sequence, the figures for `CCN(CC)C(=O)O[C@H]1C(C)=C[C@]23C(=O)[C@@H](C=C(CO)[C@@H](O)[C@]12O)[C@H]1[C@@H](C[C@H]3C)C1(C)C` [Compound 706, Ingenol 3-(N,N-diethyl-carbamate)] were greater than 350 µM, 20 to 100 nM and less than 20 nM.
Taken in the same sequence, the figures for `CC1=C[C@]23C(=O)[C@@H](C=C(CO)[C@@H](O)[C@]2(O)[C@H]1OC(=O)N(C)C1CCCCC1)[C@H]1[C@@H](C[C@H]3C)C1(C)C` [Compound 709, Ingenol 3-(N-cyclohexyl-N-methyl-carbamate)] were 150 to 350 µM, less than 20 nM and less than 20 nM.
With `CC1=C[C@]23C(=O)[C@@H](C=C(CO)[C@@H](O)[C@]2(O)[C@H]1OC(=O)N1CCCC(C)(C)C1)[C@H]1[C@@H](C[C@H]3C)C1(C)C` [Compound 713, Ingenol 3-(3,3-dimethyl-piperidine-1-carboxylate)], the EC50 was 150 to 350 µM in the test with HeLa cells (HeLa); less than 20 nM in test [1] (HEKa, 6 h); 20 to 100 nM in test [2] (setting [3]).
For the compound `CC1=C[C@]23C(=O)[C@@H](C=C(CO)[C@@H](O)[C@]2(O)[C@H]1OC(=O)N(C)C1CCCc2ccccc21)[C@H]1[C@@H](C[C@H]3C)C1(C)C` (stereo partly drawn) [Compound 714, Ingenol 3-(N-Methyl-N-tetralin-1-yl-carbamate)], the EC50 is less than 150 µM with HeLa cells (HeLa); less than 20 nM in test [1] (HEKa, 6 h); greater than 100 nM in test [2] (setting [3]).
On the same counts, the results for `CC1=C[C@]23C(=O)[C@@H](C=C(CO)[C@@H](O)[C@]2(O)[C@H]1OC(=O)N(C)[C@@H](C)c1ccccc1)[C@H]1[C@@H](C[C@H]3C)C1(C)C` [Compound 716, Ingenol 3-(N-methyl-N—((S)-1-phenethyl)-carbamate)] are less than 150 µM, less than 20 nM and 20 to 100 nM.
On the same counts, the results for `CC1=C[C@]23C(=O)[C@@H](C=C(CO)[C@@H](O)[C@]2(O)[C@H]1OC(=O)N(C)CC1CC1)[C@H]1[C@@H](C[C@H]3C)C1(C)C` [Compound 717, Ingenol 3-(N-methyl-N-(cyclopropylmethyl)-carbamate)] are greater than 350 µM, less than 20 nM and less than 20 nM.
Regarding `CC1=C[C@]23C(=O)[C@@H](C=C(CO)[C@@H](O)[C@]2(O)[C@H]1OC(=O)N(C)c1cccc(F)c1)[C@H]1[C@@H](C[C@H]3C)C1(C)C` [Compound 718, Ingenol 3-(N-(3-fluoro-phenyl)-N-methyl-carbamate)], the EC50 in the test on HeLa cells (HeLa) is 150 to 350 µM; in test [1] (HEKa, 6 h), less than 20 nM; in test [2] (setting [3]), less than 20 nM.
`CC1=C[C@]23C(=O)[C@@H](C=C(CO)[C@@H](O)[C@]2(O)[C@H]1OC(=O)N(C)c1cc(C)n(C)n1)[C@H]1[C@@H](C[C@H]3C)C1(C)C` [Compound 721, Ingenol 3-(N-(1,5-dimethylpyrazol-3-yl)-N-methyl-carbamate)]: the EC50 is greater than 350 µM with HeLa cells (HeLa); 20 to 100 nM in test [1] (HEKa, 6 h); 20 to 100 nM in test [2] (setting [3]).
Turning to `CC1=C[C@]23C(=O)[C@@H](C=C(CO)[C@@H](O)[C@]2(O)[C@H]1OC(=O)N(C)C1CCCC1)[C@H]1[C@@H](C[C@H]3C)C1(C)C` [Compound 722, Ingenol 3-(N-cyclopentyl-N-methyl-carbamate)], the EC50 is greater than 350 µM in the test on HeLa cells (HeLa); 20 to 100 nM in test [1] (HEKa, 6 h); less than 20 nM in test [2] (setting [3]).
In the case of `CC1=C[C@]23C(=O)[C@@H](C=C(CO)[C@@H](O)[C@]2(O)[C@H]1OC(=O)N(C)C1CC1)[C@H]1[C@@H](C[C@H]3C)C1(C)C` [Compound 723, Ingenol 3-(N-cyclopropyl-N-methyl-carbamate)], the EC50 is greater than 350 µM in the test with HeLa cells (HeLa); 20 to 100 nM in test [1] (HEKa, 6 h); less than 20 nM in test [2] (setting [3]).
Taken in the same sequence, the figures for `CC1=C[C@]23C(=O)[C@@H](C=C(CO)[C@@H](O)[C@]2(O)[C@H]1OC(=O)N1CCCc2ccccc21)[C@H]1[C@@H](C[C@H]3C)C1(C)C` [Compound 726, Ingenol 3-(3,4-dihydro-2H-quinoline-1-carboxylate)] were less than 150 µM, less than 20 nM and 20 to 100 nM.
On the same counts, the results for `CC1=C[C@]23C(=O)[C@@H](C=C(CO)[C@@H](O)[C@]2(O)[C@H]1OC(=O)N1CCc2ccccc21)[C@H]1[C@@H](C[C@H]3C)C1(C)C` [Compound 727, Ingenol 3-(indoline-1-carboxylate)] are less than 150 µM, less than 20 nM and less than 20 nM.
For `CC1=C[C@]23C(=O)[C@@H](C=C(CO)[C@@H](O)[C@]2(O)[C@H]1OC(=O)N(C)c1ccc(Cl)cc1)[C@H]1[C@@H](C[C@H]3C)C1(C)C` [Compound 729, Ingenol 3-(N-(4-chloro-phenyl)-N-methyl-carbamate)], the EC50 is 150 to 350 µM in the test on HeLa cells (HeLa); less than 20 nM in test [1] (HEKa, 6 h); less than 20 nM in test [2] (setting [3]).
For the compound `CC1=C[C@]23C(=O)[C@@H](C=C(CO)[C@@H](O)[C@]2(O)[C@H]1OC(=O)N(C)c1ccccc1C)[C@H]1[C@@H](C[C@H]3C)C1(C)C` [Compound 732, Ingenol 3-(N-methyl-N-(2-methyl-phenyl)-carbamate)], the EC50 in the test with HeLa cells (HeLa) is 150 to 350 µM; in test [1] (HEKa, 6 h), less than 20 nM; in test [2] (setting [3]), less than 20 nM.
Turning to `CCN(C(=O)O[C@H]1C(C)=C[C@]23C(=O)C(C=C(CO)[C@@H](O)[C@]12O)[C@H]1[C@@H](C[C@H]3C)C1(C)C)c1ccccc1` [Compound 734, Ingenol 3-(N-ethyl-N-phenyl-carbamate)], the EC50 in the test with HeLa cells (HeLa) is 150 to 350 µM; in test [1] (HEKa, 6 h), less than 20 nM; in test [2] (setting [3]) it was 20 to 100 nM.
For the compound `CC1=C[C@]23C(=O)[C@@H](C=C(CO)[C@@H](O)[C@]2(O)[C@H]1OC(=O)N1CC2CCC(CC2)C1)[C@H]1[C@@H](C[C@H]3C)C1(C)C` [Compound 736, Ingenol 3-(3-azabicyclo[3.2.2]nonane-3-carboxylate)], the EC50 is 150 to 350 µM with HeLa cells (HeLa cells, 30 min at 37° C., PrestoBlue, AbsEC50, normalized to 400 μM ingenol mebutate); less than 20 nM in test [1] (HeKa cells, 6 h at 37° C., IL-8 by MSD assay, normalized to 1.5×10^−7 M PEP0005); less than 20 nM in test [2] (PMN from buffy coats, 40 min at RT, hydroethidine fluorescence, read-out: Neutrophil oxidative burst Rel EC50 range).
Consider `CC1=C[C@]23C(=O)[C@@H](C=C(CO)[C@@H](O)[C@]2(O)[C@H]1OC(=O)N1CCOc2ccccc21)[C@H]1[C@@H](C[C@H]3C)C1(C)C` [Compound 737, Ingenol 3-(2,3-dihydro-1,4-benzoxazine-4-carboxylate)], for which the EC50 in the test with HeLa cells (HeLa) is less than 150 µM; in test [1] (HEKa, 6 h), less than 20 nM; in test [2] (setting [3]), less than 20 nM.
For the compound `CC1=C[C@]23C(=O)[C@@H](C=C(CO)[C@@H](O)[C@]2(O)[C@H]1OC(=O)N(C)c1ccccc1F)[C@H]1[C@@H](C[C@H]3C)C1(C)C` [Compound 738, Ingenol 3-(N-(2-fluoro-phenyl)-N-methyl-carbamate)], the EC50 in the test with HeLa cells (HeLa) was 150 to 350 µM; in test [1] (HEKa, 6 h) it was 20 to 100 nM; in test [2] (setting [3]), less than 20 nM.
On the same counts, the results for `CC1=C[C@]23C(=O)[C@@H](C=C(CO)[C@@H](O)[C@]2(O)[C@H]1OC(=O)N1c2ccccc2OCC1C)[C@H]1[C@@H](C[C@H]3C)C1(C)C` (stereo partly drawn) [Compound 739, Ingenol 3-(3-methyl-2,3-dihydro-1,4-benzoxazine-4-carboxylate)] are less than 150 µM, less than 20 nM and less than 20 nM.
On the same counts, the results for `CC1=C[C@]23C(=O)[C@@H](C=C(CO)[C@@H](O)[C@]2(O)[C@H]1OC(=O)N(C)c1cccc(C)c1)[C@H]1[C@@H](C[C@H]3C)C1(C)C` [Compound 743, Ingenol 3-(N-methyl-N-(3-methyl-phenyl)-carbamate)] are 150 to 350 µM, less than 20 nM and less than 20 nM.
Taken in the same sequence, the figures for `CC1=C[C@]23C(=O)[C@@H](C=C(CO)[C@@H](O)[C@]2(O)[C@H]1OC(=O)N1CCNc2ccccc21)[C@H]1[C@@H](C[C@H]3C)C1(C)C` [Compound 744, Ingenol 3-(3,4-dihydro-2H-quinoxaline-1-carboxylate)] were 150 to 350 µM, 20 to 100 nM and 20 to 100 nM.
